Patent US8642297B2, “Production of L-ribose and other rare sugars” (ZuChem, Inc., priority 2005, dated 2014)

How the values were obtained:
Recombinant MDH = biological target: T1, Recombinant MDH (Apium graveolens, UniProt Q38707, C47S/T120I); test: Relative reaction rates of substrates with recombinantly expressed MDH (NADH formation measured spectrophotometrically); assay type: biochemical; conditions: relative to D-mannitol = 100%; MDH expressed in E. coli
T1 construct: made in house; host or cells: E. coli BL21 (pTTQ18 plasmid, tac promoter)
T1 sequence (Q38707 whole entry C47S/T120I): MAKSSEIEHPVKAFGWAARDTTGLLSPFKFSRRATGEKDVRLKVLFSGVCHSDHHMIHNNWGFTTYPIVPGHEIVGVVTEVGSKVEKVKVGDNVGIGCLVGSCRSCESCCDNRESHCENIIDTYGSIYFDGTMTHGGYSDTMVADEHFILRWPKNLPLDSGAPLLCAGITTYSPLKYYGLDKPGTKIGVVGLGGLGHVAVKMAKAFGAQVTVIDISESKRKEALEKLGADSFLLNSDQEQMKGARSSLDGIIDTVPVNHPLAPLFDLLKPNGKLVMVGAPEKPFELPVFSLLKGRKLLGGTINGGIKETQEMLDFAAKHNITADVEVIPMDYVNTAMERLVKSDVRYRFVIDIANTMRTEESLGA
Protocol: (§1) Many different variables were studied to maximize the expression and activity of MDH. MDH activity was monitored with the conversion of D-mannitol to D-mannose in the presence of NAD. The conversion was monitored spectrophotometrically by measuring the increasing concentration of NADH, the cofactor product of the oxidation of mannitol to mannose. For a given experiment, lysate protein concentrations were normalized.
Substrate specificity of the recombinant MDH was also tested and compared with the published data on the natively expressed MDH. Recombinant expression of MDH in E. coli could cause subtle modifications to the tertiary structure of MDH and modify the substrate specificity. Several known substrates of the MDH were tested.[16]
The reaction rate of L-fucitol for recombinant MDH was tested. […] The fucitol was not originally characterized in the previous literature on MDH.[38]

Native MDH = biological target: T2, Native MDH (Apium graveolens, UniProt Q38707); conditions: cited from earlier work; for Relative reaction rate, Native MDH: relative to D-mannitol = 100%, natively expressed MDH
T2 construct: compared with the published data on the natively expressed MDH; host or cells: celery (Apium graveolens)
T2 sequence (Q38707 1-365): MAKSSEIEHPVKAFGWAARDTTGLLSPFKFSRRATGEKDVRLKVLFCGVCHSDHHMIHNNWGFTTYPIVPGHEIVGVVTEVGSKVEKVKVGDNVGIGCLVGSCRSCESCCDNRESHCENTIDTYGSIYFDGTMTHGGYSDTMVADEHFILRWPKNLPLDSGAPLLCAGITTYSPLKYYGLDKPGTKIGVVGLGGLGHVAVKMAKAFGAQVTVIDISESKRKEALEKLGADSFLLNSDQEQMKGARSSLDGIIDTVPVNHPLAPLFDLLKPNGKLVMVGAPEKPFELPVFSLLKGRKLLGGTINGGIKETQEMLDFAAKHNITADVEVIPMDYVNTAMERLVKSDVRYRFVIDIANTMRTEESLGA

[1] = assay type: biochemical, Apium graveolens
Protocol: as §1
The pH profile for MDH for the oxidation reactions was also tested. […] This range could be beneficial for in vitro bioconversions with enzymatic NAD cofactor recycling methods. Increasing the activity of MDH at neutral pH could improve in vivo fermentation activity as the interior of the E. coli cell has a pH lower than 9.0.[21]
The recombinant MDH was tested for activity at various temperatures. Lysates containing expressed MDH were incubated with D-mannitol and NAD at pH 9.0. Activity was measured by measuring the increased NADH concentration spectrophotometrically at A340nm. […] See, FIG. 12.
The thermostability of recombinant MDH was also tested. Lysates containing MDH were incubated at various temperatures. Aliquots of MDH were removed at various times to measure MDH activity using the assay described above. See, FIG. 13.

[2] = biological target: T3, Apium gravelons mannitol-1-dehydrogenase (MDH) (Apium graveolens, UniProt Q38707, C47S/T120I); test: MDH activity in lysate with added divalent metal salts, D-mannitol and NAD at pH 9.0; assay type: biochemical
T3 construct: made in house; host or cells: E. coli BL21 (pTTQ18 plasmid, tac promoter)
T3 sequence (Q38707 whole entry C47S/T120I): as the sequence (Q38707 whole entry C47S/T120I) above
Protocol: While not explicitly described in the literature, Apium gravelons mannitol-1-dehydrogenase (MDH) requires divalent metal ions, particularly Zn^2+ ions, for activity. The presence of ZnSO4 increases MDH activity. Cells expressing MDH were grown in rich media were harvested and lysed with BUGBUSTER® protein extraction reagent, Novagen, Madison, Wis. MDH activity was then tested with increasing concentrations of ZnSO4 in the presence of D-mannitol and NAD cofactor at pH 9.0. See, FIG. 1.

| Compound | Relative reaction rate, Recombinant MDH (Recombinant MDH) | Relative reaction rate, Native MDH (Native MDH) | further results |
| --- | --- | --- | --- |
| OC[C@@H](O)[C@H](O)[C@@H](O)CO [Xylitol] | 1% | 0% | Conversion of xylitol to L-xylose by wild-type MDH (Native MDH; wild-type MDH): does not convert |
| OC[C@@H](O)[C@@H](O)[C@H](O)[C@H](O)CO [D-Mannitol] | 100% | 100% | – |
| OC[C@@H](O)[C@@H](O)[C@H](O)[C@@H](O)CO [D-Sorbitol] | 5% | 22% | – |
| MDH: NAD-dependent mannitol-1-dehydrogenase from Apium graveolens, recombinantly expressed in E. coli | – | – | Thermostability (loss of activity on incubation) [1]: Most MDH activity was lost; Residual activity at pH 7.0 ([1]; pH 7.0, relative to maximum at pH 9.0): 10% |
| C[C@H](O)[C@@H](O)[C@@H](O)[C@H](O)CO [L-fucitol] | 10.5% | – | – |
| O=S(=O)([O-])[O-].[Ni+2] [NiSO4] | – | – | Inhibition of MDH activity ([2]; 0.1 mM NiSO4 compared to MDH without NiSO4 added): approximately 50% |
| OC[C@@H](O)[C@@H](O)CO [Erythritol] | 4% | 16% | – |
| OC[C@@H](O)[C@@H](O)[C@@H](O)CO [Ribitol] | 50% | 36% | – |
| OC[C@@H](O)C(O)[C@H](O)CO [D-Arabitol] | 33% | 37% | – |
| O=S(=O)([O-])[O-].[Zn+2] [Zn^2+, ZnSO4] | – | – | Increase of MDH activity ([2]; 1 μM Zn^2+ ions compared to no added zinc): 50%; Effect on MDH activity at concentrations above 1 μM ([2]; concentrations above 1 μM): inhibition |
